Measurements published in patent US20240269139A1, “COMPOUNDS FOR TARGETED PROTEIN DEGRADATION OF KINASES” (DANA-FARBER CANCER INSTITUTE, INC., priority 2020, published 2024).

Test system: protein kinases (human kinome)
Format: cell-based
Details: for kinases the bifunctional compound degrades: as stated for the structure in the embodiments; for Kinase hits: kinases significantly downregulated vs DMSO (fold change cutoff −1.25, P-value<0.01), ≤8 h, 0.1-5 μM degrader, 7 cell lines; for Total no. kinase hits: number of degraded kinases per library compound
Source text: Although development of targeted protein degraders requires a POI binder, among already-liganded proteins such as kinases, it was hypothesized that different targets would have a different propensity for current approaches to degrader-mediated destruction, which was termed ‘degradability’. […] It was rationalized that the probability of identifying the same kinase as a false positive in multiple treatments is low, therefore this analysis served to also assess the robustness of our data and subsequent interpretations. […] Overall, 62 protein kinases were degraded in more than 10 independent treatments, and remarkably, 9 of these (CDK4, AURKA, FER, WEE1, BLK. LIMK2, CDK6, GAK, LIMK1) were each degraded in at least 40 of the 154 independent treatments, emphasizing their predisposition to induced degradation (FIG. 1G; Appendix I).
Next, the frequency of degradation assessment was corrected for over-representation of molecules in the full dataset by omitting replicate profiling of compounds under different experimental conditions, to remove any bias. […] Unsurprisingly, the top degradable kinases mirror those from the previous analysis (CDK4, AURKA, FER, WEE1, BLK), confirming that in sufficiently large datasets, even with over-representation of certain molecules, frequency of degradation is a good measure of general tractability.

SMILES	kinases the bifunctional compound degrades	Kinase hits	Total no. kinase hits
Cn1c(=O)c(-c2c(Cl)cccc2Cl)cc2cnc(Nc3ccc(OCCNC(=O)CCCCCCNC(=O)COc4cccc5c4C(=O)N(C4CCC(=O)NC4=O)C5=O)cc3)nc21 (centres unmarked) [SB1-G-192-1, N-(2-(4-((6-(2,6-dichlorophenyl)-8-methyl-7-oxo-7,8-dihydropyrido[2,3-d]pyrimidin-2-yl)amino)phenoxy)ethyl)-7-(2-((2-(2,6-dioxopiperidin-3-yl)-1,3-dioxoisoindolin-4-1413 yl)oxy)acetamido)heptanamide]	ABL1, ABL2, AURKA, BLK, CSK, EPHA3, EPHB6, FYN, GAK, LCK. LIMK2, MAPK14, NLK, PDK1, PKMYT1, SIK2, SRC, TNK2, WEE1, and YES1	ABL1, ABL2, AURKA, BLK, CSK, EPHA3, EPHB6, FYN, GAK, LCK, LIMK2, MAPK14, NLK, PDK1, PKMYT1, SIK2, SRC, TNK2, WEE1, YES1	20
NC(=O)c1c(F)cccc1Nc1nc(NC2CCN(S(=O)(=O)CCNC(=O)CCCCCCCCOc3cccc4c3C(=O)N(C3CCC(=O)NC3=O)C4=O)CC2)ncc1Br (centres unmarked) [TMX-01-160-1]	–	AURKA, CDK1, CDK12, CDK16, CDK17, CDK2, CDK4, CDK5, CDK6, CDK7, CDK9, MAPK10, MAPK8, MAPK9, RPS6KA1	15
CC(C)S(=O)(=O)c1ccccc1Nc1nc(Nc2ccc(N3CCN(CCOCCNC(=O)CNc4ccc5c(c4)C(=O)N(C4CCC(=O)NC4=O)C5=O)CC3)cc2)ncc1Cl (centres unmarked) [SK-3-93]	AAK1, ABL2, AURKA, BLK, BMP2K, CDK12, CDK13, CDK17, CDK2, CDK4, CDK5, CDK6, CDK7, CDK9, FER, GAK, ITK. LCK, LIMK2. PRKAA1, PTK2B, RPS6KA1, SRC, and WEE1	AAK1, ABL2, AURKA, BLK, BMP2K, CDK12, CDK13, CDK17, CDK2, CDK4, CDK5, CDK6, CDK7, CDK9, FER, GAK, ITK, LCK, LIMK2, PRKAA1, PTK2B, RPS6KA1, SRC, WEE1,	24
Cc1ncsc1-c1ccc([C@H](C)NC(=O)[C@@H]2C[C@@H](O)CN2C(=O)[C@@H](NC(=O)CCOCCOCCN2CCN(c3ccc(Nc4ncc(Cl)c(Nc5ccccc5S(=O)(=O)C(C)C)n4)cc3)CC2)C(C)(C)C)cc1 [FMF-06-098-1, (2S,4R)-1-((S)-2-(3-(2-(2-(4-(4-((5-chloro-4-((2-(isopropylsulfonyl)phenyl)amino)pyrimidin-1320 2-yl)amino)phenyl)piperazin-I-yl)ethoxy)ethoxy)propanamido)-3,3-dimethylbutanoyl)-4-1321 hydroxy-N—((S)-1-(4-(4-methylthiazol-5-yl)phenyl)ethyl)pyrrolidine-2-carboxamide]	AAK1, ABL2, AURKA, AURKB, BUB1B, CDC7, CDK1, CDK12, CDK13, CDK2, CDK4, CDk6, CDK7, CDK9, CHEK1, CSNK1D. EPHA1, FER, FGFR1, GAK, IRAK4, ITK, LIMK2, MAP4K2, MAP4K3, MAPK6, MAPK7, MARK4, MELK, PKN3, PLK4, PRKAA1, PTK2, PTK6, RPS6KA4, SIK2, STK35, TNK2. UHMK1, ULK1, and WEE1	AAK1, ABL2, AURKA, AURKB, BUB1B, CDC7, CDK1, CDK12, CDK13, CDK2, CDK4, CDk6, CDK7, CDK9, CHEK1, CSNK1D, EPHA1, FER, FGFR1, GAK, IRAK4, ITK, LIMK2, MAP4K2, MAP4K3, MAPK6, MAPK7, MARK4, MELK, PKN3, PLK4, PRKAA1, PTK2, PTK6, RPS6KA4, SIK2, STK35, TNK2, UHMK1, ULK1, WEE1	42
Cc1ccc(NC(=O)c2cccc(C(C)(C)C#N)c2)cc1Nc1ccc2ncn(CCOCCOCCC(=O)N[C@H](C(=O)N3C[C@H](O)C[C@H]3C(=O)NCc3ccc(-c4scnc4C)cc3)C(C)(C)C)c(=O)c2c1 [DD-02-198]	MAPK14	MAPK14	1
O=C(CCCCCCNC(=O)COc1cccc2c1C(=O)N(C1CCC(=O)NC1=O)C2=O)NCCOc1ccc(Nc2ncc3ccc(=O)n(C4CC5CCC4C5)c3n2)cc1 (centres unmarked) [SB1-G-194]	AAK1, AURKA, AURKB, CDK6, CDK9, FGR2, STK17A, and TTK	AAK1, AURKA, AURKB, CDK6, CDK9, FGR2, STK17A, TTK	8
